Results published in PubChem BioAssay (NCI).
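1) Cells in 96-well plates. 2) Compound, 48 h, 5 concentrations. 3) Linear interpolation between surrounding doses. 4) Unreached endpoint = highest concentration. TGI: concentration producing complete growth inhibition.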

Tests used:
Experiment in all cases: NCI tumour cell line growth inhibition, 48 h
[1] = system: OVCAR-4 ovarian
[2] = system: SK-MEL-28 melanoma
[3] = system: HOP-92 NSCLC
[4] = system: HL-60(TB) leukemia
[5] = system: HCC-2998 colon
[6] = system: ACHN renal
[7] = system: MCF7 breast
[8] = system: SN12C renal
[9] = system: OVCAR-3 ovarian
[10] = system: OVCAR-5 ovarian
[11] = system: M14 melanoma
[12] = system: DU-145 prostate
[13] = system: SK-MEL-2 melanoma
[14] = system: UO-31 renal
[15] = system: MOLT-4 leukemia
[16] = system: MALME-3M melanoma
[17] = system: NCI-H522 lung
[18] = system: EKVX NSCLC
[19] = system: MDA-MB-231 breast
[20] = system: A549 NSCLC
[21] = system: U251 CNS
[22] = system: BT-549 breast
[23] = system: NCI-H460 lung
[24] = system: COLO 205 colon
[25] = system: CCRF-CEM leukemia
[26] = system: SF-268 CNS
[27] = system: SW-620 colon
[28] = system: HT29 colon
[29] = system: UACC-62 melanoma
[30] = system: IGROV1 ovarian
[31] = system: 786-0 renal
[32] = system: NCI/ADR-RES ovarian
[33] = system: RPMI-8226 leukemia
[34] = system: NCI-H23 lung
[35] = system: NCI-H226 lung
[36] = system: HS 578T breast
[37] = system: SK-OV-3 ovarian
[38] = system: SK-MEL-5 melanoma
[39] = system: HOP-62 NSCLC
[40] = system: T-47D breast
[41] = system: SF-295 CNS
[42] = system: SNB-75 CNS
[43] = system: KM12 colon
[44] = system: K-562 leukemia
[45] = system: PC-3 prostate
[46] = system: MDA-N
[47] = system: TK-10 renal
[48] = system: OVCAR-8 ovarian
[49] = system: HCT-15 colon
[50] = system: HCT-116 colon
[51] = system: LOX IMVI melanoma
[52] = system: MDA-MB-435
[53] = system: SNB-19 CNS
[54] = system: RXF 393 renal
[55] = system: CAKI-1 renal
[56] = system: UACC-257 melanoma
[57] = system: SF-539 CNS

`c1cc(-c2ccc(-c3ccc(-c4ccc(-c5cccc6nsnc56)[nH]4)c4nsnc34)[nH]2)c2nsnc2c1` showed a TGI [1] of over 100 µM, a TGI [2] of over 100 µM and a TGI [3] of over 100 µM. The TGI [4] was 30.1 µM, the TGI [5] was over 100 µM and the TGI [6] was over 100 µM. For the same compound, the TGI [7] was over 100 µM, the TGI [8] was over 100 µM and the TGI [9] was over 100 µM. It also gave a TGI [10] of over 100 µM, a TGI [11] of over 100 µM and a TGI [12] of over 100 µM. The TGI [13] was over 100 µM, the TGI [14] was over 100 µM and the TGI [15] was over 100 µM. For the same compound, the TGI [16] was over 100 µM, the TGI [17] was over 100 µM and the TGI [18] was over 100 µM. It also gave a TGI [19] of over 100 µM, a TGI [20] of over 100 µM and a TGI [21] of over 100 µM. For the same compound, the TGI [22] was over 100 µM, the TGI [23] was over 100 µM and the TGI [24] was over 100 µM. It also gave a TGI [25] of over 100 µM, a TGI [26] of over 100 µM and a TGI [27] of over 100 µM. For the same compound, the TGI [28] was over 100 µM, the TGI [29] was over 100 µM and the TGI [30] was over 100 µM. The TGI [31] was over 100 µM, the TGI [32] was over 100 µM and the TGI [33] was over 100 µM. For the same compound, the TGI [34] was over 100 µM, the TGI [35] was over 100 µM and the TGI [36] was over 100 µM. The TGI [37] was over 100 µM, the TGI [38] was over 100 µM and the TGI [39] was over 100 µM. The TGI [40] was over 100 µM, the TGI [41] was over 100 µM and the TGI [42] was over 100 µM. The TGI [43] was over 100 µM, the TGI [44] was over 100 µM and the TGI [45] was over 100 µM. For the same compound, the TGI [46] was over 100 µM, the TGI [47] was over 100 µM and the TGI [48] was over 100 µM. The TGI [49] was over 100 µM, the TGI [50] was over 100 µM and the TGI [51] was over 100 µM. It also gave a TGI [52] of over 100 µM and a TGI [53] of over 100 µM.
`CCN1C(=O)C(=C/C=C/c2ccc(OC)cc2)C(=O)N(CC)C1=S` showed a TGI [54] of 39.8 µM, a TGI [1] of over 100 µM and a TGI [3] of 28.9 µM. It also gave a TGI [4] of over 100 µM, a TGI [5] of over 100 µM and a TGI [6] of 31.5 µM. For the same compound, the TGI [7] was over 100 µM, the TGI [8] was 35.4 µM and the TGI [9] was 31.2 µM. It also gave a TGI [10] of over 100 µM, a TGI [11] of 52.5 µM and a TGI [55] of 47.2 µM. The TGI [56] was 30.3 µM, the TGI [12] was 34 µM and the TGI [13] was over 100 µM. For the same compound, the TGI [14] was over 100 µM, the TGI [15] was over 100 µM and the TGI [16] was 28 µM. For the same compound, the TGI [18] was 78.9 µM, the TGI [19] was 37.2 µM and the TGI [20] was over 100 µM. It also gave a TGI [21] of 36.6 µM, a TGI [22] of 90.1 µM and a TGI [57] of 40.4 µM. It also gave a TGI [23] of over 100 µM, a TGI [24] of 36 µM and a TGI [25] of 75.3 µM. It also gave a TGI [26] of 88.3 µM, a TGI [27] of 44 µM and a TGI [28] of 58.9 µM. The TGI [29] was 31.7 µM, the TGI [30] was 35.7 µM and the TGI [31] was 32.6 µM. For the same compound, the TGI [32] was 37.4 µM, the TGI [33] was over 100 µM and the TGI [34] was over 100 µM. It also gave a TGI [35] of over 100 µM, a TGI [36] of over 100 µM and a TGI [37] of 57.8 µM. It also gave a TGI [38] of 71.7 µM, a TGI [39] of 36.1 µM and a TGI [40] of over 100 µM. It also gave a TGI [41] of over 100 µM, a TGI [43] of 40.5 µM and a TGI [44] of over 100 µM. The TGI [45] was 37.3 µM, the TGI [46] was 36.6 µM and the TGI [47] was 31.8 µM. The TGI [48] was 44.7 µM, the TGI [49] was 36.4 µM and the TGI [50] was 31.8 µM. For the same compound, the TGI [51] was 32.6 µM, the TGI [52] was 43.6 µM and the TGI [53] was over 100 µM.
For `O=C1c2ccccc2C(=Nc2ccc3ccccc3c2)C1(C1=C(c2ccccc2)C(=Nc2ccc3ccccc3c2)c2ccccc21)c1ccccc1` (stereo not drawn), the TGI [54] was over 100 µM, the TGI [1] was over 100 µM and the TGI [2] was over 100 µM. It also gave a TGI [3] of over 100 µM, a TGI [4] of over 29 µM and a TGI [5] of over 63.4 µM. The TGI [6] was 15 µM, the TGI [7] was over 65.6 µM and the TGI [8] was over 100 µM. It also gave a TGI [9] of over 100 µM, a TGI [10] of over 100 µM and a TGI [11] of over 86.8 µM. The TGI [55] was over 100 µM, the TGI [56] was over 100 µM and the TGI [12] was over 100 µM. The TGI [13] was over 69.5 µM, the TGI [14] was 37 µM and the TGI [15] was 7.81 µM. The TGI [17] was over 100 µM, the TGI [18] was over 100 µM and the TGI [19] was over 100 µM. For the same compound, the TGI [20] was over 100 µM, the TGI [21] was over 100 µM and the TGI [22] was 73.3 µM. It also gave a TGI [57] of over 100 µM, a TGI [23] of over 100 µM and a TGI [24] of over 100 µM. For the same compound, the TGI [25] was over 100 µM, the TGI [26] was over 100 µM and the TGI [27] was over 100 µM. It also gave a TGI [28] of over 100 µM, a TGI [29] of over 53.5 µM and a TGI [30] of over 100 µM. The TGI [31] was over 100 µM, the TGI [32] was over 100 µM and the TGI [33] was 18.2 µM. It also gave a TGI [34] of over 31.3 µM, a TGI [35] of over 44.4 µM and a TGI [36] of over 100 µM. It also gave a TGI [37] of over 100 µM, a TGI [38] of 7.47 µM and a TGI [39] of over 100 µM. It also gave a TGI [40] of over 100 µM, a TGI [41] of over 100 µM and a TGI [42] of over 70.4 µM. For the same compound, the TGI [43] was over 42.6 µM, the TGI [44] was over 43.5 µM and the TGI [45] was over 100 µM. The TGI [46] was over 59.1 µM, the TGI [47] was over 100 µM and the TGI [48] was over 94.1 µM. The TGI [49] was over 23.8 µM, the TGI [50] was over 100 µM and the TGI [51] was over 100 µM. For the same compound, the TGI [52] was over 87.3 µM and the TGI [53] was over 100 µM.
